Laboratory results taken from patent US6017911A, “Pyridonecarboxylic acid derivatives and intermediates for the synthesis thereof” (Dainippon Pharmaceutical Co., Ltd., priority 1996, dated 2000).
In brackets after ≈: the same amount, converted by molar mass. Where two headings read alike, the source gives them in different places.

How the values were obtained:
[1] = system: Pseudomonas aeruginosa No 12; assay: In vitro antibacterial activity (MIC), Pseudomonas aeruginosa No 12; format: cell-based; details: NO12, read-out: Minimum inhibitory concentration (MIC)
[2] = system: Staphylococcus aureus MS16405; assay: In vitro antibacterial activity (MIC), Staphylococcus aureus MS16405; format: cell-based
[3] = system: Staphylococcus aureus 50774; assay: Effect on systemic infection in mice; format: in vivo, mice (male Std-ddy strain); details: 168 h; Staphylococcus aureus 50774 i.p. infection; oral, twice (immediately and 6 h after infection); survival 7 days after infection
Description: The effects (ED50; mg/kg) on systemic infection in mice were determined as follows: Male Std-ddy strain mice (weighing about 20 g) were infected with each of the pathogenic bacteria shown in Table 2 by administering 5×10^3 viable cells intraperitoneally to each mouse. Then, a suspension of each test compound in 0.4% carboxymethylcellulose was orally administered twice, i.e., immediately after infection and 6 hours after infection. Seven days after infection, the ED50 value was calculated from the survival rate of each mouse group by probit analysis.
As a reference compound, there was used enoxacin [1-ethyl-6-fluoro-1,4-dihydro-4-oxo-7-(1-piperazinyl-1,8-naphthyridine-3-carboxylic acid; hereinafter abbreviated as ENX] that is an excellent antibacterial agent currently on the market.
The test compounds shown in the following Tables 1 and 2 are identified by the respective numbers of the Examples which will be given later.

[4] = system: Staphylococcus aureus 50774; assay: In vitro antibacterial activity (MIC), Staphylococcus aureus 50774; format: cell-based; details: Staphylococcus aureus 50774; read-out: Minimum inhibitory concentration (MIC)
[5] = system: Escherichia coli NIHJ JC-2; assay: In vitro antibacterial activity (MIC), Escherichia coli NIHJ JC-2; format: cell-based; details: NIHJJC2, read-out: Minimum inhibitory concentration (MIC)
[6] = Staphylococcus aureus, MS16405, read-out: Minimum inhibitory concentration (MIC)
[7] = Staphylococcus aureus MS16405, read-out: Minimum inhibitory concentration (MIC)

Compound | MIC [1] [µg/mL] | MIC [2, 6] [µg/mL] | ED50 [3] [mg/kg] | MIC [4] [µg/mL] | MIC [5] [µg/mL] | MIC [2, 7] [µg/mL]
COc1c(N2C[C@H](N)[C@H]3OCC[C@H]32)c(F)cc2c(=O)c(C(=O)O)cn(C3CC3)c12 (relative stereo) [Example 1, 7-[(1R*,5R*,8S*)-8-amino-2-oxa-6-azabicyclo[3.3.0]oct-6-yl]-1-cyclopropyl-6-fluoro-1,4-dihydro-8-methoxy-4-oxoquinoline-3-carboxylic acid] | 0.39 (≈ 0.967 µM) | 0.39 (≈ 0.967 µM) | 0.36 | ≤ 0.003 | 0.013 (≈ 0.0322 µM) | –
COc1c(N2C[C@H](N)[C@H]3OCC[C@H]32)c(F)cc2c(=O)c(C(=O)O)cn([C@@H]3C[C@@H]3F)c12 (relative stereo) [Example 2, 7-[(1R*,5R*,8S*)-8-amino-2-oxa-6-azabicyclo[3.3.0]oct-6-yl]-6-fluoro-1-[(1R,2S)-2-fluorocyclopropyl]-1,4-dihydro-8-methoxy-4-oxoquinoline-3-carboxylicacid] | 0.39 (≈ 0.925 µM) | 0.39 (≈ 0.925 µM) | 0.383 | 0.006 (≈ 0.0142 µM) | 0.013 (≈ 0.0308 µM) | –
Nc1c(F)c(N2C[C@H](N)[C@H]3OCC[C@H]32)c(F)c2c1c(=O)c(C(=O)O)cn2C1CC1 (relative stereo) [Example 3, 5-Amino-7-[(1R*,5R*,8S*)-8-amino-2-oxa-6-azabicyclo[3.3.0]oct-6-yl]-1-cyclopropyl-6,8-difluoro-1,4-dihydro-4-oxoquinoline-3-carboxylic acid] | 0.2 (≈ 0.492 µM) | – | 0.398 | 0.013 (≈ 0.032 µM) | 0.006 (≈ 0.0148 µM) | 1.56 (≈ 3.84 µM)
COc1c(N2C[C@H](N)[C@H]3OCC[C@H]32)c(F)c(N)c2c(=O)c(C(=O)O)cn(C3CC3)c12 (relative stereo) [Example 4] | 0.78 (≈ 1.86 µM) | 0.39 (≈ 0.932 µM) | 0.246 | 0.006 (≈ 0.0143 µM) | 0.025 (≈ 0.0597 µM) | –
COc1c(N2C[C@H](N)[C@H]3OCC[C@H]32)c(F)c(C)c2c(=O)c(C(=O)O)cn(C3CC3)c12 (relative stereo) [Example 5] | 0.78 (≈ 1.87 µM) | – | 0.257 | ≤ 0.003 | 0.025 (≈ 0.0599 µM) | 0.39 (≈ 0.934 µM)
CN[C@H]1CN(c2c(F)cc3c(=O)c(C(=O)O)cn(C4CC4)c3c2OC)[C@@H]2CCO[C@H]12 (relative stereo) [Example 6] | 1.56 (≈ 3.74 µM) | – | 0.292 | 0.025 (≈ 0.0599 µM) | 0.025 (≈ 0.0599 µM) | 1.56 (≈ 3.74 µM)
CN[C@H]1CN(c2c(F)c(C)c3c(=O)c(C(=O)O)cn(C4CC4)c3c2OC)[C@@H]2CCO[C@H]12 (relative stereo) [Example 8] | 1.56 (≈ 3.62 µM) | – | 0.345 | 0.013 (≈ 0.0301 µM) | 0.2 (≈ 0.464 µM) | 3.13 (≈ 7.25 µM)
CN[C@H]1CN(c2c(F)c(N)c3c(=O)c(C(=O)O)cn(C4CC4)c3c2OC)[C@@H]2CCO[C@H]12 (relative stereo) [Example 9] | 1.56 (≈ 3.61 µM) | – | 0.415 | 0.025 (≈ 0.0578 µM) | 0.05 (≈ 0.116 µM) | 1.56 (≈ 3.61 µM)
COc1c(N2C[C@H](N)[C@H]3OCCC[C@H]32)c(F)cc2c(=O)c(C(=O)O)cn(C3CC3)c12 (relative stereo) [Example 10] | 3.13 (≈ 7.5 µM) | 0.39 (≈ 0.934 µM) | 0.465 | 0.013 (≈ 0.0311 µM) | 0.1 (≈ 0.24 µM) | –
N[C@H]1CN(c2nc3c(cc2F)c(=O)c(C(=O)O)cn3-c2ccc(F)cc2F)[C@@H]2CCO[C@@H]21 (relative stereo) [Example 11] | 0.39 (≈ 0.874 µM) | – | 0.579 | 0.013 (≈ 0.0291 µM) | 0.25 (≈ 0.56 µM) | –
COc1c(N2C[C@H](N)[C@H]3OCCC[C@H]32)c(F)c(N)c2c(=O)c(C(=O)O)cn(C3CC3)c12 (relative stereo) [Example 12] | 1.56 (≈ 3.61 µM) | – | 0.715 | 0.013 (≈ 0.0301 µM) | 0.1 (≈ 0.231 µM) | 0.39 (≈ 0.902 µM)
COc1c(N2C[C@@H](N)[C@H]3OCC[C@H]32)c(F)c(N)c2c(=O)c(C(=O)O)cn(C3CC3)c12 (relative stereo) [Example 13] | 0.78 (≈ 1.86 µM) | – | 0.778 | 0.013 (≈ 0.0311 µM) | 0.05 (≈ 0.119 µM) | 1.56 (≈ 3.73 µM)
N[C@H]1CN(c2c(F)cc3c(=O)c(C(=O)O)cn(C4CC4)c3c2OC(F)F)[C@@H]2CCO[C@@H]21 (relative stereo) [Example 14] | 1.56 (≈ 3.55 µM) | – | ≤ 0.78 | 0.025 (≈ 0.0569 µM) | 0.025 (≈ 0.0569 µM) | 1.56 (≈ 3.55 µM)
CN[C@H]1CN(c2nc3c(cc2F)c(=O)c(C(=O)O)cn3-c2ccc(F)cc2F)[C@@H]2CCO[C@H]12 (relative stereo) [Example 17] | 0.78 (≈ 1.69 µM) | – | 0.78 | 0.05 (≈ 0.109 µM) | 0.1 (≈ 0.217 µM) | –
CN[C@H]1CN(c2c(F)cc3c(=O)c(C(=O)O)cn(C4CC4)c3c2Cl)[C@@H]2CCO[C@H]12 (relative stereo) [Example 20] | 1.56 (≈ 3.7 µM) | – | – | 0.1 (≈ 0.237 µM) | 0.05 (≈ 0.119 µM) | 3.13 (≈ 7.42 µM)
Nc1c(F)c(N2C[C@@H](N)[C@H]3OCCC[C@H]32)c(F)c2c1c(=O)c(C(=O)O)cn2C1CC1 (relative stereo) [Example 21] | 0.39 (≈ 0.928 µM) | – | – | ≤ 0.003 | 0.013 (≈ 0.0309 µM) | 0.78 (≈ 1.86 µM)

Compound | MIC [1] [µg/mL] | MIC [2, 6] [µg/mL] | ED50 [3] [mg/kg] | MIC [4] [µg/mL] | MIC [5] [µg/mL] | MIC [2, 7] [µg/mL]
N[C@H]1CN(c2nc3c(cc2F)c(=O)c(C(=O)O)cn3C2CC2)[C@@H]2CCO[C@@H]21 (relative stereo) [Example 22] | 0.39 (≈ 1.04 µM) | – | – | 0.05 (≈ 0.134 µM) | ≤ 0.003 | –
COc1c(N2C[C@@H](N)[C@H]3OCC[C@H]32)c(F)cc2c(=O)c(C(=O)O)cn(C3CC3)c12 (relative stereo) [Example 23] | 0.78 (≈ 1.93 µM) | – | – | ≤ 0.003 | 0.025 (≈ 0.062 µM) | 0.78 (≈ 1.93 µM)
Cc1c(F)c(N2C[C@H](N)[C@H]3OCC[C@H]32)c(C)c2c1c(=O)c(C(=O)O)cn2C1CC1 (relative stereo) [Example 24] | 0.78 (≈ 1.94 µM) | – | – | 0.013 (≈ 0.0324 µM) | 0.025 (≈ 0.0623 µM) | 1.56 (≈ 3.89 µM)
N[C@H]1CN(c2cc3c(cc2F)c(=O)c(C(=O)O)cn3C2CC2)[C@@H]2CCO[C@@H]21 (relative stereo) [Example 26] | 0.39 (≈ 1.04 µM) | – | – | 0.05 (≈ 0.134 µM) | 0.013 (≈ 0.0348 µM) | –
C#Cc1c(N2C[C@H](N)[C@H]3OCC[C@H]32)c(F)cc2c(=O)c(C(=O)O)cn(C3CC3)c12 (relative stereo) [Example 27] | 1.56 (≈ 3.93 µM) | – | – | 0.025 (≈ 0.0629 µM) | 0.025 (≈ 0.0629 µM) | 1.56 (≈ 3.93 µM)
N[C@@H]1CN(c2nc3c(cc2F)c(=O)c(C(=O)O)cn3-c2ccc(F)cc2F)[C@@H]2CCO[C@H]12 (relative stereo) [Example 29] | 0.39 (≈ 0.874 µM) | – | – | 0.025 (≈ 0.056 µM) | 0.025 (≈ 0.056 µM) | –
Cc1c(F)c(N2C[C@@H](N)[C@H]3OCCC[C@H]32)c(C#N)c2c1c(=O)c(C(=O)O)cn2C1CC1 (relative stereo) [Example 30] | 0.78 (≈ 1.83 µM) | – | – | 0.013 (≈ 0.0305 µM) | 0.05 (≈ 0.117 µM) | 3.13 (≈ 7.34 µM)
COc1c(N2C[C@@H](N)[C@H]3OCCC[C@H]32)c(F)c(N)c2c(=O)c(C(=O)O)cn(C3CC3)c12 (relative stereo) [Example 32] | 1.56 (≈ 3.61 µM) | – | – | 0.013 (≈ 0.0301 µM) | 0.1 (≈ 0.231 µM) | 0.78 (≈ 1.8 µM)
C=Cc1c(N2C[C@H](N)[C@H]3OCC[C@H]32)c(F)cc2c(=O)c(C(=O)O)cn(C3CC3)c12 (relative stereo) [Example 33] | 3.13 (≈ 7.84 µM) | – | – | 0.025 (≈ 0.0626 µM) | 0.05 (≈ 0.125 µM) | 1.56 (≈ 3.91 µM)
N#Cc1c(N2C[C@@H](N)[C@H]3OCCC[C@H]32)c(F)cc2c(=O)c(C(=O)O)cn(C3CC3)c12 (relative stereo) [Example 34] | 1.56 (≈ 3.78 µM) | – | – | 0.05 (≈ 0.121 µM) | 0.05 (≈ 0.121 µM) | 6.25 (≈ 15.2 µM)
CN[C@@H]1CN(c2c(F)cc3c(=O)c(C(=O)O)cn(C4CC4)c3c2OC)[C@@H]2CCO[C@@H]21 (relative stereo) [Example 35] | 3.13 (≈ 7.5 µM) | – | – | 0.025 (≈ 0.0599 µM) | 0.1 (≈ 0.24 µM) | 6.25 (≈ 15 µM)
N[C@@H]1CN(c2c(F)cc3c(=O)c(C(=O)O)cn(C4CC4)c3c2OC(F)F)[C@@H]2CCO[C@H]12 (relative stereo) [Example 37] | 3.13 (≈ 7.12 µM) | – | – | 0.05 (≈ 0.114 µM) | 0.1 (≈ 0.228 µM) | 6.25 (≈ 14.2 µM)
N#Cc1c(N2C[C@H](N)[C@H]3OCC[C@H]32)c(F)cc2c(=O)c(C(=O)O)cn(C3CC3)c12 (relative stereo) [Example 38] | 3.13 (≈ 7.86 µM) | – | – | 0.1 (≈ 0.251 µM) | 0.05 (≈ 0.126 µM) | –
Cc1c(F)c(N2C[C@H](N)[C@H]3OCC[C@H]32)nc2c1c(=O)c(C(=O)O)cn2-c1ccc(F)cc1F (relative stereo) [Example 39, 7-[(1R*,5R*,8S*)-8-amino-2-oxa-6-azabicyclo[3.3.0]oct-6-yl]-6-fluoro-1-(2,4-difluorophenyl)-1,4-dihydro-5-methyl-4-oxo-1,8-naphthyridine-3-carboxylic acid] | 0.78 (≈ 1.69 µM) | – | – | 0.025 (≈ 0.0543 µM) | 0.2 (≈ 0.434 µM) | 3.13 (≈ 6.8 µM)
COc1c(N2C[C@@H](N)[C@H]3OC(C)C[C@H]32)c(F)cc2c(=O)c(C(=O)O)cn(C3CC3)c12 (relative stereo) [Example 40, 7-[(1R*,5R*,8R*)-8-amino-3-methyl-2-oxa-6-azabicyclo[3.3.0]oct-6-yl]-1-cyclopropyl-6-fluoro-1,4-dihydro-8-methoxy-4-oxoquinoline-3-carboxylic acid] | 3.13 (≈ 7.5 µM) | – | – | 0.025 (≈ 0.0599 µM) | 0.1 (≈ 0.24 µM) | 1.56 (≈ 3.74 µM)
